Experimental data reported in PMC12670405, “Second-Generation AURKA-Targeting PROTACs: Structural Optimization toward in Vivo Degradation in Neuroblastoma” (Journal of Medicinal Chemistry, 2025).

Experiments:
AURKA = molecular target: T1, AURKA (Homo sapiens, UniProt O14965); experiment: In vivo pharmacodynamics study, IMR-32 cell line-derived xenograft, Western blot; parameters: from tissue; host or cells: IMR-32 cell line-derived xenograft tumours, BALB/c nude mice; species or system BALB/c nude mice; settings: for AURKA protein reduction in tumor (in words): single IP dose 15 mg/kg; for AURKA protein levels in tumor (in words): single IV dose 15 mg/kg
T1 sequence (O14965 1-403): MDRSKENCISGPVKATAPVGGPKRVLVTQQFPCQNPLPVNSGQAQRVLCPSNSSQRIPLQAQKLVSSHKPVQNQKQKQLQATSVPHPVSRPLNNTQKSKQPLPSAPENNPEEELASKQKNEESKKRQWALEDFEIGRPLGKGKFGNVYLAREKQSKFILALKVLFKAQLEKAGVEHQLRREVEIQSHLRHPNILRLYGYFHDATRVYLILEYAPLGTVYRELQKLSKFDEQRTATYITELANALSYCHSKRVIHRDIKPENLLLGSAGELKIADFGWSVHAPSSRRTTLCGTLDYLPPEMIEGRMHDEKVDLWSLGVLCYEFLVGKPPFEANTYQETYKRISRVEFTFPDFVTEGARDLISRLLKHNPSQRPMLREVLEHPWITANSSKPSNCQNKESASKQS
Experimental: Protein lysates were denatured through addition of Laemmli buffer supplemented with β-mercaptoethanol (Sigma-Aldrich, #M6250) heated at 95 °C for 10 min. […] The ladder used was the PageRuler Prestained Protein Ladder (Thermo Fisher Scientific, #26617). Afterward, proteins were blotted on nitrocellulose membranes (Bio-Rad, #162-0233) by running at 100 V for 1 h with a buffer containing 10% 10× Tris/glycine (Bio-Rad, #161-0771) and 20% methanol (Thermo Fisher Scientific, #0390D). Ponceau staining was used for confirmation of protein transfer. Membranes were blocked in 5% milk/TBST or 5% BSA/TBST for 1 h at room temperature and subsequently incubated with primary antibodies overnight at 4 °C. Blots were washed 3× for 5 min each with TBST prior to incubation with secondary antibodies for 1 h at room temperature. Visualization of the blots was done using WestDura or WestFemto (Thermo Fisher Scientific, #34096, #34076) with the Amersham Imager 680 (BIOKÉ). Blots were stripped using the Restore Stripping Buffer (Thermo Fisher Scientific, #21059) prior to detection of additional proteins. Images were compiled and quantified using Sciugo (https://sciugo.com/). Per lane, quantified data were always normalized to that of the loading control (Vinculin or GAPDH), prior to calculating fold changes. Mean fold changes are calculated from 3 individual experiments. A list of the primary and secondary antibodies used can be found in the Supporting Information (Supplementary Table S7).
Both the in vivo pharmacokinetics and in vivo pharmacodynamics studies were performed by Eurofins Pharmacology Discovery Services. All mice were provided by BioLasco Taiwan (under Charles River Laboratories Licensee). Animals were acclimated for 3 days prior to use and were confirmed to be in good health. All aspects of this work including housing, experimentation, and animal disposal were performed in general accordance with the “Guide for the Care and Use of Laboratory Animals: Eighth Edition” (National Academies Press, Washington, DC. 2011) in a AAALAC-accredited laboratory animal facility. In addition, the animal care and use protocol was reviewed and approved by the IACUC at Eurofins Pharmacology Discovery Services; IN020-08202020 and ON002-07142023.
Six-week old female BALB/c nude mice were subcutaneously implanted with viable IMR-32 cells formulated in 50% Matrigel into the right flank (1 × 10^7 cells/mouse, in 0.2 mL volume). Palpable tumor volumes were measured with a caliper and calculated according to the prolate ellipsoid formula: tumor volume = length × width^2 × 0.5. When the mean tumor volume reached ∼250 mm^3, animals were randomized into groups (0, 4, 8, 24 h) with 3 animals per group. […] Other groups were given a single IV or IP administration of SK5527 or SK4454 at 15 mg/kg (dissolved in 5% DMSO/5% Solutol HS15/90% PBS). Tumors were subsequently harvested at the respective time points, snap-frozen in liquid nitrogen, and kept frozen at −70 °C until further processing. Upon receipt of the samples in our lab, we mechanically digested and lysed tumor pieces by adding cold RIPA lysis buffer (with protease and phosphatase inhibitors as previously described) and Stainless Steel Beads (Qiagen, #69989) followed by shaking for 2 min (twice) using TissueLyser II (Qiagen). Afterward, samples were centrifuged for 20 min (10,000 rpm, 4 °C). The supernatant was then collected and the concentration of the obtained protein lysates was measured using the Pierce BCA Protein Assay Kit (Thermo Fisher Scientific, #23227). Western blot was performed as previously described to visualize changes in AURKA protein levels.

NanoLuc-AURKA = molecular target: T2, NanoLuc-AURKA (Homo sapiens, UniProt O14965); experiment: NanoBRET target engagement, live (intact) cells; format: cell-based; settings: intact HEK293T
T2 construct: Plasmids encoding full-length wild-type AURKA fused to Nano-Luc; host or cells: HEK293T
T2 sequence (O14965 1-403): T1 sequence (O14965 1-403)
Experimental: The NanoBRET Target Engagement Assay (Promega) was performed according to the recommended instructions from the manufacturer. Plasmids encoding full-length wild-type AURKA fused to Nano-Luc via AURKA’s C-terminus (Promega, #NV1041) were transfected into HEK293T cells using FuGENE HD (Promega, #E2312). […] The plate was mixed at 900 rpm for 15 s, using an orbital shaker. For the permeabilized-mode, digitonin (Sigma-Aldrich, #D141) was additionally added at a final concentration of 50 μg/mL. Test compounds were subsequently administered in duplicate using the D300e digital dispenser (Tecan), followed by incubation for 2 h (37 °C, 5% CO2). To measure BRET, nanoglo substrate and extracellular nanoluc inhibitor (only in live-mode) (Promega #N2540) were added, and luminescence was measured using the GloMax Discover Microplate Reader (Promega) with a luminescence filter pair of 450 nm (BP filter, donor) and 600 nm (LP filter, acceptor). The NanoBRET ratio was calculated using the following formula: BRET ratio = 1000*[(acceptor signal/donor signal)with tracer – (acceptor signal/donor signal)no tracer]. Relative BRET ratios (%) were generated by normalizing to the negative DMSO control. The experiment was performed once with 2 replicate samples.
All dose–response curves were computed on GraphPad Prism using the Variable Slope (four parameters) equation. Absolute half-maximal degradation (DC50), growth inhibitory (GI50) and enzymatic inhibitory (IC50) concentrations, as well as inhibition constants (Ki) were derived from dose–response curves via interpolation. Statistical tests were performed on GraphPad Prism and detailed in the figure legends. Unless otherwise stated, “n” in the figure legends indicates the number of independent experiments conducted at different times.

## Cc1cc(Nc2ccc(F)c(CC3(C(=O)N4CCC(CN5CCN(c6ccc(N7CCC(=O)NC7=O)cn6)CC5)CC4)CCN(Cc4cccc(Cl)c4F)CC3)n2)n[nH]1 [SK4454]
AURKA
  AURKA protein reduction in tumor (in words): not observed
AURKA; 4 and 8 h post-treatment
  AURKA protein levels in tumor (in words): strongly reduced AURKA protein levels
AURKA; 24 h
  AURKA protein levels in tumor (in words): return to baseline levels
NanoLuc-AURKA
  NanoLuc-AURKA engagement in intact cells (in words): able to bind NanoLuc-AURKA in intact cells

## Cc1cc(Nc2ccc(F)c(CC3(C(=O)N4CCC(F)(CN5CCN(c6ccc(N7CCC(=O)NC7=O)cn6)CC5)CC4)CCN(Cc4cccc(Cl)c4F)CC3)n2)n[nH]1 [SK5527]
AURKA
  AURKA protein reduction in tumor (in words): not observed
AURKA; 4 and 8 h post-treatment
  AURKA protein levels in tumor (in words): strongly reduced AURKA protein levels
AURKA; 24 h
  AURKA protein levels in tumor (in words): return to baseline levels
NanoLuc-AURKA
  NanoLuc-AURKA engagement in intact cells (in words): able to bind NanoLuc-AURKA in intact cells
